Measurements reported in patent US20210121518A1, “HER2-TARGETED PEPTIDOMIMETICS GRAFTED ONTO MULTICYCLIC PEPTIDE SCAFFOLDS AND METHODS AND USES” (Board of Supervisors for the University of Louisiana System, priority 2018, published 2021).
Where “and” joins values, the source holds several entries; their conditions need not be identical. Equal entries are not always repeated. Entries after “also recorded” stand apart in the source; their conditions may differ. Numbered stars: 1 amine (or outer) side, 2 acyl side, 3 side chain; on linkers, the order of the positions; unused ones are H or OH. Bridge positions count the residues as written; N and C are the ends. Square brackets hold non-standard residues; d marks the D form. Peptide text beside a SMILES is read from it. βAla(3R-(1-naphthyl)) = O=C(C[C@@H](N[*:1])c1cccc2ccccc12)[*:2]; βAla(3S-(1-naphthyl)) = O=C(C[C@H](N[*:1])c1cccc2ccccc12)[*:2]

Legend:
[1] = tested on: phosphorylation of HER2 kinase; test: Western blot of HER2 phosphorylation in A549 cells; assay type: cell-based; settings: 1 μM, incubation 40 h
Description: Lapatinib (2 μM) was used as positive control. Incubation 40 h. *p<0.05 **P<0.01.
Lapatinib, a known inhibitor of HER2, was used as a positive control.

[2] = tested on: Calu-3 lung cancer cell lines that overexpresses HER2; test: Synergy with TKI (isobologram) in Calu-3; assay type: cell-based
trypsin = test: Stability in trypsin (HPLC); assay type: in vitro ADME; settings: pH 7.4, 37° C, 24 hours
Description: The trypsin inhibition assay was performed with a modified Erlanger's method. […] Samples at different incubation times were analyzed by HPLC.

[3] = tested on: normal breast epithelial cell line MCF-10A; settings: for IC50: read-out: antiproliferative activity IC50, MCF-10A
Description: (§1) X=Anapa, amino naphthyl propionic acid, specifically, 3-amino 3(1-napthyl) propionic acid. Single letter amino acid code was used for peptide sequence. Small letters refer to D amino acids and capital letters refer to L amino acids. Chirality of Anapa was indicated with R and S configuration in italics. Antiproliferative activity of peptides in cancer cell lines are given as IC50 μM. Disulfide bond between the cysteines is shown in underline.
Design of grafted peptides: Peptidomimetics were designed to bind to HER2 protein domain IV and inhibit PPI of HER2:HER3 and EGFR:HER2.

[4] = tested on: A549 Red-FLuc NSCLC cells; test: A549 Red-FLuc lung cancer model in athymic nude mice; assay type: in vivo, mice (Foxn1-nude); settings: 6 mg/kg IV twice a week
Description: A549 cells with luciferase were injected to induce lung cancer in mice (Foxn1-nude). One week after injection of cells, mice were monitored for lung cancer development using luciferin imaging. Peptide was administered via IV twice a week after 2 weeks of cell injections. Representative images: In the control group (row 1) lung cancer tumor growth increased in 5 weeks.
FIG. 17 is a chart showing relative luminescence intensity (total photon flux/sec) plotted for 3 animals and a control.
FIG. 18A is a plot of relative luminescence intensity (total photon flux/sec) plotted for 4 animals and controls from the lung cancer study, *p<0.05, and FIG. 18B is a plot displaying bodyweight change of mice during the study.
Athymic nude mice (Foxn1-nude, 6-7 weeks old) were purchased from Harlan laboratories. Mice were acclimatized for one week in the vivarium. 4.5×10^6 A549 Red-FLuc NSCLC cells in 150 μL PBS were injected into each mouse via tail vein (IV). Total of four mice were injected with cells. Mice were monitored for 2 weeks. After 1 week, mice were injected with luciferin (200 μL in PBS, IP injection) and imaged under anesthesia using IVIS (Perkin Elmer) instrument. Bioluminescence was measured from each animal. One animal was used as a control. Peptide treatment started after 2 weeks from injection of cells and peptide was prepared in PBS and administered via i.v. with a dose of 6 mg/kg in 100 μL twice a week. Animals were imaged once a week to monitor the progression of lung cancer. Images were quantified using Living Image Software (Perkin Elmer). Bioluminescence signal for each mouse was expressed as total flux of photons/sec. Region of interest tool was used to measure the total photon flux/sec. A graph of bioluminescence for each mouse was plotted with respect to time (each week). After five weeks mice were terminated, and tumor sections and lungs were removed by surgical procedure. Tumor sections were fixed, embedded in […], and cut into 5 μm slices. […] Images were viewed under a fluorescence microscope (Olympus BX63 microscope) at 40× magnification. […]

[5] = Stability in human serum (in vitro, HPLC); assay type: in vitro ADME
Excerpt: At different time points, aliquots of sample were taken and subjected to extraction of compound using cold acetonitrile. Samples were freeze dried and quantified by HPLC method. […] Nearly 60% of sample is intact peptide.

[6] = Thermal stability by MALDI-TOF mass spectrometry; assay type: physicochemical; settings: 25° C., 50° C., 80° C., MALDI-TOF-MS
Description: FIGS. 12A-12C are three charts showing thermal stability of the disclosed H2TPFGGoCSs using mass spectrometry.
(§2) However, CD spectra of peptides provide the information about the overall average conformation of the peptide in solution. To verify that the peptide was stable even at high temperature, the samples of peptide that were heated to 80 C was analyzed by mass spectrometry. […] The CD spectra of compound 18 was also verified using mass spectrometry analysis (FIG. 22).

[7] = tested on: BT-474 cell lines that overexpress HER2; test: Synergy with TKI (isobologram) in BT-474; assay type: cell-based
[8] = for appearance in water (turbidity): 0.5 mg in 1 mL water, compared to blank
Description: 0.5 mg of each compound was added to water in 1 mL. […] If a compound is highly soluble in water, it may not pass through intestinal barrier. Compound should be slightly lipophilic to pass through intestinal barrier.

[9] = tested on: MCF-7 cell lines that do not overexpress the HER2 protein
Description: as §1

[10] = tested on: HER2 overexpressing BT-474 breast cancer cell lines; settings: read-out: antiproliferative activity IC50
Description: as §1

[11] = tested on: HER2-overexpressing lung cancer Calu-3 cell lines; settings: read-out: antiproliferative activity IC50
Description: as §1

[12] = tested on: NCI-H1975 (EGFR L858R/T790M double mutation); settings: read-out: antiproliferative activity IC50
Description: as §1
The inventor therefor designed compounds to bind to the extracellular domain and inhibit the downstream signaling. NCI-H1975 is a cell line that harbors the EGFR L858R/T790M double mutation.

[13] = tested on: EGFR mutated NSCLC cell line NCI-H1975; test: Synergy with TKI (isobologram) in NCI-H1975; assay type: cell-based
[14] = Thermal stability by CD spectroscopy; assay type: physicochemical; settings: temperature changed from 25 to 80° C. (85 C)
Description: Overall conformation of the peptide remained the same at all temperatures studied.
as §2

[15] = target: HER2 protein extracellular domain (ECD) (Homo sapiens, UniProt P04626); test: SPR binding to HER2 extracellular domain; settings: SPR sensorgram
Excerpt: Surface plasmon resonance (SPR) analysis of binding of grafted peptide with HER2 ECD protein at different concentrations. […] SPR analysis of binding of grafted peptide with HER2 ECD domain IV protein at different concentrations.
To evaluate the binding of the grafted peptide to HER2 protein ECD, surface plasmon resonance (SPR) analysis was used.

[16] = target: T1, human serum albumin (HSA) (human, UniProt P02768 25-609); test: SPR
T1 construct: also called HSA protein
T1 sequence (P02768 25-609 limits assumed): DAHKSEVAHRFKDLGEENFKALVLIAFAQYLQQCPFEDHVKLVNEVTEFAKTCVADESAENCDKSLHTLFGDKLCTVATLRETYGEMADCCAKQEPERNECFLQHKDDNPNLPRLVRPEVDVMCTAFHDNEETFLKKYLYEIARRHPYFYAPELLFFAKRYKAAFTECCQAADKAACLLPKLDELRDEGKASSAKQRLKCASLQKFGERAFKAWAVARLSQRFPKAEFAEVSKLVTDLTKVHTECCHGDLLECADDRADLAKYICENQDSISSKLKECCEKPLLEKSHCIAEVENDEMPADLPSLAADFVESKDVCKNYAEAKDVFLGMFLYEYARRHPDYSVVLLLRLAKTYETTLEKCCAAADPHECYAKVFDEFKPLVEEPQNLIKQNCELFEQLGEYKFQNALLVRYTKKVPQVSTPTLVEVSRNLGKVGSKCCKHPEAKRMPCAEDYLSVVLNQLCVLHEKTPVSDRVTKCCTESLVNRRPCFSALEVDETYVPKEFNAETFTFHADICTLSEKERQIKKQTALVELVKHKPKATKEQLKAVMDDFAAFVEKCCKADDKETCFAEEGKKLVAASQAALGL

## CC[C@H](C)[C@@H]1NC(=O)[C@H](CCCNC(=N)N)NC(=O)C[C@@H](c2cccc3ccccc23)NC(=O)[C@@H]2CSSC[C@H](NC(=O)C[C@@H](c3cccc4ccccc34)NC(=O)[C@H](CCCNC(=N)N)NC(=O)[C@@H]3CCCN3C(=O)[C@@H]3CCCN3C1=O)C(=O)N[C@@H](Cc1ccccc1)C(=O)N1CCC[C@H]1C(=O)N[C@@H](CC(=O)O)C(=O)N[C@@H](CC(=O)O)C(=O)N[C@@H](Cc1ccccc1)C(=O)N2 [SFTI-G5, Cyclo(C(S-X)RIPPR(S-X)CFPDDF)]
[1]
  inhibition of HER2 phosphorylation: inhibits phosphorylation of HER2 kinase; also recorded: reduces HER2 phosphorylation
[2]; Calu-3, combination with erlotinib
  synergistic effect with erlotinib (isobologram): synergistic
[2]; Calu-3, combination with lapatinib
  synergistic effect with lapatinib (isobologram): synergistic
trypsin
  stability in trypsin: stable in trypsin assay
[3]; MCF-10A vs Calu-3
  antiproliferative activity, times less in noncancerous breast cell lines compared to Calu-3: more than 500 times
[3]
  IC50: 40 µM
[4]
  histological analysis of lung tissue: reduced pathological features associated with tumor development
[4]; weeks 4 and 5, vs control
  tumor growth (bioluminescence, total photon flux/sec): reduced growth of tumors; also recorded: tumor growth was reduced compared to the control group; also recorded: reduction in the luminescence intensity of tumors
[4]; during the study
  body weight change of mice: No changes in body weight were observed
[5]; 2 mg/mL in human serum, HPLC
  time of stability in human serum: up to 50 h
[5]; human, human serum, up to 50 h, read-out: intact peptide in human serum
  remaining at 50 h, 2 mg/mL: ~60%
[6]
  thermal stability, mass spectrometry: stable up to 80 C; also recorded: thermally stable
[7]; BT-474, combination with erlotinib
  synergistic effect with erlotinib (isobologram): synergistic
[7]; BT-474, combination with lapatinib
  synergistic effect with lapatinib (isobologram): synergistic
[8]
  appearance in water (turbidity): slightly turbid
[9]; as printed: less than its activity against HER2-ve cell lines
  antiproliferative activity, times less against HER2-ve cell lines: ~300 times
[9]; read-out: antiproliferative activity IC50, MCF-7
  IC50: 25 µM
[10]
  IC50: 0.28 µM
[11]
  IC50: 0.073 µM
[12]
  IC50: 4.22 µM
[13]; NCI-H1975, combination with erlotinib
  synergistic effect with erlotinib (isobologram): synergistic
[13]; NCI-H1975, combination with lapatinib
  synergistic effect with lapatinib (isobologram): synergistic
[14]
  thermal stability, CD spectra: stable from 25 C to 85 C; also recorded: more stable than compound 18; also recorded: no significance difference in the CD spectra

## N=C(N)NCCC[C@@H]1NC(=O)[C@H]2CCCN2C(=O)[C@@H]2CCCN2C(=O)[C@H](CCCNC(=N)N)NC(=O)C[C@H](c2cccc3ccccc23)NC(=O)[C@H](Cc2ccccc2)NC(=O)[C@H](CC(=O)O)NC(=O)[C@H](CC(=O)O)NC(=O)[C@H](Cc2ccccc2)NC(=O)C[C@H](c2cccc3ccccc23)NC1=O [compound 18, reference compound] (cyclo(P[dP]R[βAla(3R-(1-naphthyl))]FDDF[βAla(3R-(1-naphthyl))]R))
[3]
  IC50: 40 µM
[8]
  solubility: < 500 µg/mL

## Cyclo(C(S-X)RIHyPHyPR(S-X)CFPDDF) [SFTI-G7]
[8]
  appearance in water (turbidity): slightly turbid

## H2N—K(3-aminobiphenyl propionic acid)F—OH [control peptide]
[15]
  binding to HER2 protein (in words): does not bind to HER2 protein; also recorded: no binding was observed

B1: SFTI-G5 (peptide)
peptide: cyclo(C[βAla(3S-(1-naphthyl))]RIPPR[βAla(3S-(1-naphthyl))]CFPDDF)
modifications: disulfide 1-9
notes: also called grafted peptide; grafted SFTI peptide
[16]
  Kd: 56.9 µM and 56 µM
